Values quoted from earlier work as cited in PubChem BioAssay AID1259409 (Chemical Carcinogenesis Research Information System (CCRIS), 2018).

System: rodent chemically induced tumor inhibition, incidence and multiplicity
Experiment: CCRIS tumor inhibitor studies
Settings: Dose [Inhibitor]: 0

C[C@]12CC[C@H](OS(=O)(=O)O)CC1=CC[C@@H]1[C@@H]2CC[C@]2(C)C(=O)CC[C@@H]12
tumour outcome (control, treated, inhibition, significance) (Carcinogen: 7,12-DIMETHYLBENZ[A]ANTHRACENE, 57-97-6, 1 X 0.5 CM LONG SILASTIC IMPLANT 7 D PRIOR TO CARCINOGEN TREATMENT (STUDY DURATION: 111 D), Route [Inhibitor]: SUBCUTANEOUS IMPLANT, Species: RAT, Strain/Sex: SPRAGUE-DAWLEY/FEMALE, Target Tissue: Type of Lesion: MAMMARY GLAND: CARCINOMA, Dose [Carcinogen]: 20 MG IN 1 ML CORN OIL ADMINISTERED ON DAYS 50 TO 52 OF AGE, Promoter: NONE USED): 68%, 41%, 40%, not significant
tumour outcome (control, treated, inhibition, significance) (Carcinogen: 7,12-DIMETHYLBENZ[A]ANTHRACENE, 57-97-6, 1 X 1 CM LONG SILASTIC IMPLANT 7 D PRIOR TO CARCINOGEN TREATMENT (STUDY DURATION: 111 D), Route [Inhibitor]: SUBCUTANEOUS IMPLANT, Species: RAT, Strain/Sex: SPRAGUE-DAWLEY/FEMALE, Target Tissue: Type of Lesion: MAMMARY GLAND: CARCINOMA, Dose [Carcinogen]: 20 MG IN 1 ML CORN OIL ADMINISTERED ON DAYS 50 TO 52 OF AGE, Promoter: NONE USED): 68%, 44%, 35%, not significant
tumour outcome (control, treated, inhibition, significance) (Carcinogen: 7,12-DIMETHYLBENZ[A]ANTHRACENE, 57-97-6, 1 X 3 CM LONG SILASTIC IMPLANT 7 D PRIOR TO CARCINOGEN TREATMENT (STUDY DURATION: 111 D), Route [Inhibitor]: SUBCUTANEOUS IMPLANT, Species: RAT, Strain/Sex: SPRAGUE-DAWLEY/FEMALE, Target Tissue: Type of Lesion: MAMMARY GLAND: CARCINOMA, Dose [Carcinogen]: 20 MG IN 1 ML CORN OIL ADMINISTERED ON DAYS 50 TO 52 OF AGE, Promoter: NONE USED): 68%, 22%, 68%, p<0.01
tumour outcome (control, treated, inhibition, significance) (Carcinogen: 7,12-DIMETHYLBENZ[A]ANTHRACENE, 57-97-6, 3 X 3 CM LONG SILASTIC IMPLANT 7 D PRIOR TO CARCINOGEN TREATMENT (STUDY DURATION: 111 D), Route [Inhibitor]: SUBCUTANEOUS IMPLANT, Species: RAT, Strain/Sex: SPRAGUE-DAWLEY/FEMALE, Target Tissue: Type of Lesion: MAMMARY GLAND: CARCINOMA, Dose [Carcinogen]: 20 MG IN 1 ML CORN OIL ADMINISTERED ON DAYS 50 TO 52 OF AGE, Promoter: NONE USED): 68%, 11%, 84%, p<0.01
tumour outcome (control, treated, inhibition, significance) (Carcinogen: 7,12-DIMETHYLBENZ[A]ANTHRACENE, 57-97-6, 6 X 3 CM LONG SILASTIC IMPLANT 7 D PRIOR TO CARCINOGEN TREATMENT (STUDY DURATION: 111 D), Route [Inhibitor]: SUBCUTANEOUS IMPLANT, Species: RAT, Strain/Sex: SPRAGUE-DAWLEY/FEMALE, Target Tissue: Type of Lesion: MAMMARY GLAND: CARCINOMA, Dose [Carcinogen]: 20 MG IN 1 ML CORN OIL ADMINISTERED ON DAYS 50 TO 52 OF AGE, Promoter: NONE USED): 68%, 4%, 94%, p<0.01
tumour outcome (control, treated, inhibition, significance) (Carcinogen: N-NITROBIS(2-OXOPROPYL)AMINE, 60599-38-4, 350 MG/KG ONCE ON DAY 1 OF STUDY (STUDY DURATION: 70 D), Route [Inhibitor]: INTRAPERITONEAL, Species: HAMSTER, Strain/Sex: SYRIAN/FEMALE, Target Tissue: Type of Lesion: PANCREAS: CARCINOMA, Dose [Carcinogen]: 70 MG/KG ONCE ON DAY 1 OF STUDY THEN ONCE ON DAYS 17 AND 32 OF STUDY, Promoter: ETHIONINE, 67-21-0, METHIONINE, 63-68-3, Promoter: ETHIONINE, 67-21-0, METHIONINE, 63-68-3): 8/15 (53%), 6/15 (40%), 25%, not significant
tumour outcome (control, treated, inhibition, significance) (Carcinogen: N-NITROSOBIS(2-OXOPROPYL)AMINE, 60599-38-4, 175 MG/KG ONCE ON DAY 1 OF STUDY (STUDY DURATION: 70 D), Route [Inhibitor]: INTRAPERITONEAL, Species: HAMSTER, Strain/Sex: SYRIAN/FEMALE, Target Tissue: Type of Lesion: PANCREAS: CARCINOMA, Dose [Carcinogen]: 70 MG/KG ONCE ON DAY 1 OF STUDY THEN ONCE ON DAYS 17 AND 32 OF STUDY, Promoter: ETHIONINE, 67-21-0, METHIONINE, 63-68-3, Promoter: ETHIONINE, 67-21-0, METHIONINE, 63-68-3): 8/15 (53%), 9/16 (56%), -7%, not significant

CCS(=O)(=O)c1ccc(/C=C(\C)c2ccc3c(c2)C(C)(C)CCC3(C)C)cc1
tumour outcome (control, treated, inhibition, significance) (Carcinogen: 7,12-DIMETHYLBENZ[A]ANTHRACENE, 57-97-6, 3 MG/KG/D IN FEED REDUCED AFTER 4 WK TO 2.2 MG/KG/D (STUDY DURATION: 13 WK), Route [Inhibitor]: ORAL, Species: RAT, Strain/Sex: SPRAGUE-DAWLEY/FEMALE, Target Tissue: Type of Lesion: MAMMARY GLAND: TUMOR, Dose [Carcinogen]: 15 MG IN ARACHIS OIL ONCE AT 50 D OF AGE, Promoter: NONE USED): 96%, 73%, 24%, not calculated

NC(=O)c1cccc(N)c1
outcome (Carcinogen: N-NITROSOBIS(2-HYDROXYPROPYL)AMINE, 53609-64-6, 300 MG/KG 30 MIN AFTER EACH CARCINOGEN DOSE (STUDY DURATION: 35 WK), Route [Inhibitor]: INTRAPERITONEAL, Species: HAMSTER, Strain/Sex: SYRIAN/MALE, Target Tissue: Type of Lesion: BILE DUCT: CHOLANGIOCARCINOMA, Dose [Carcinogen]: 500 MG/KG IN 0.9% SALINE 1/WK FOR 5 WK, Promoter: NONE USED): 0%, 7%
outcome (Carcinogen: N-NITROSOBIS(2-HYDROXYPROPYL)AMINE, 53609-64-6, 300 MG/KG 30 MIN AFTER EACH CARCINOGEN DOSE (STUDY DURATION: 35 WK), Route [Inhibitor]: INTRAPERITONEAL, Species: HAMSTER, Strain/Sex: SYRIAN/MALE, Target Tissue: Type of Lesion: LIVER: HEPATOCELLULAR CARCINOMA, Dose [Carcinogen]: 500 MG/KG IN 0.9% SALINE 1/WK FOR 5 WK, Promoter: NONE USED): 0%, 7%
tumour outcome (control, treated, inhibition, significance) (Carcinogen: N-NITROSOBIS(2-HYDROXYPROPYL)AMINE, 53609-64-6, 300 MG/KG 30 MIN AFTER EACH CARCINOGEN DOSE (STUDY DURATION: 35 WK), Route [Inhibitor]: INTRAPERITONEAL, Species: HAMSTER, Strain/Sex: SYRIAN/MALE, Target Tissue: Type of Lesion: LUNG: ADENOCARCINOMA, Dose [Carcinogen]: 500 MG/KG IN 0.9% SALINE 1/WK FOR 5 WK, Promoter: NONE USED): 8%, 0%, 100%, not calculated
outcome (Carcinogen: N-NITROSOBIS(2-HYDROXYPROPYL)AMINE, 53609-64-6, 300 MG/KG 30 MIN AFTER EACH CARCINOGEN DOSE (STUDY DURATION: 35 WK), Route [Inhibitor]: INTRAPERITONEAL, Species: HAMSTER, Strain/Sex: SYRIAN/MALE, Target Tissue: Type of Lesion: LUNG: ADENOMA, Dose [Carcinogen]: 500 MG/KG IN 0.9% SALINE 1/WK FOR 5 WK, Promoter: NONE USED): 0%, 7%
tumour outcome (control, treated, inhibition, significance) (Carcinogen: N-NITROSOBIS(2-HYDROXYPROPYL)AMINE, 53609-64-6, 300 MG/KG 30 MIN AFTER EACH CARCINOGEN DOSE (STUDY DURATION: 35 WK), Route [Inhibitor]: INTRAPERITONEAL, Species: HAMSTER, Strain/Sex: SYRIAN/MALE, Target Tissue: Type of Lesion: PANCREAS: CARCINOMA, Dose [Carcinogen]: 500 MG/KG IN 0.9% SALINE 1/WK FOR 5 WK, Promoter: NONE USED): 39%, 40%, -3%, not calculated
outcome (Carcinogen: N-NITROSOBIS(2-HYDROXYPROPYL)AMINE, 53609-64-6, 600 MG/KG 30 MIN AFTER EACH CARCINOGEN DOSE (STUDY DURATION: 35 WK), Route [Inhibitor]: INTRAPERITONEAL, Species: HAMSTER, Strain/Sex: SYRIAN/MALE, Target Tissue: Type of Lesion: LIVER: HEPATOCELLULAR CARCINOMA, Dose [Carcinogen]: 500 MG/KG IN 0.9% SALINE 1/WK FOR 5 WK, Promoter: NONE USED): 0%, 5%
tumour outcome (control, treated, inhibition, significance) (Carcinogen: N-NITROSOBIS(2-HYDROXYPROPYL)AMINE, 53609-64-6, 600 MG/KG 30 MIN AFTER EACH CARCINOGEN DOSE (STUDY DURATION: 35 WK), Route [Inhibitor]: INTRAPERITONEAL, Species: HAMSTER, Strain/Sex: SYRIAN/MALE, Target Tissue: Type of Lesion: LUNG: ADENOCARCINOMA, Dose [Carcinogen]: 500 MG/KG IN 0.9% SALINE 1/WK FOR 5 WK, Promoter: NONE USED): 8%, 0%, 100%, not calculated
outcome (Carcinogen: N-NITROSOBIS(2-HYDROXYPROPYL)AMINE, 53609-64-6, 600 MG/KG 30 MIN AFTER EACH CARCINOGEN DOSE (STUDY DURATION: 35 WK), Route [Inhibitor]: INTRAPERITONEAL, Species: HAMSTER, Strain/Sex: SYRIAN/MALE, Target Tissue: Type of Lesion: LUNG: ADENOMA, Dose [Carcinogen]: 500 MG/KG IN 0.9% SALINE 1/WK FOR 5 WK, Promoter: NONE USED): 0%, 5%
tumour outcome (control, treated, inhibition, significance) (Carcinogen: N-NITROSOBIS(2-HYDROXYPROPYL)AMINE, 53609-64-6, 600 MG/KG 30 MIN AFTER EACH CARCINOGEN DOSE (STUDY DURATION: 35 WK), Route [Inhibitor]: INTRAPERITONEAL, Species: HAMSTER, Strain/Sex: SYRIAN/MALE, Target Tissue: Type of Lesion: PANCREAS: CARCINOMA, Dose [Carcinogen]: 500 MG/KG IN 0.9% SALINE 1/WK FOR 5 WK, Promoter: NONE USED): 39%, 25%, 36%, not calculated
